Reference: ChEMBL document CHEMBL1153466, “Isoplatensimycin: Synthesis and biological evaluation” (2009)
≈ marks a conversion by molar mass, not a printed value.

Columns and labels:
Assay type in all cases: functional
[1] = test system: Staphylococcus aureus; experiment: Antimicrobial activity against vancomycin-susceptible Staphylococcus aureus isolate 11
[2] = test system: Staphylococcus aureus; experiment: Antimicrobial activity against methicillin-resistant Staphylococcus aureus isolate 6
[3] = test system: Staphylococcus aureus; experiment: Antimicrobial activity against vancomycin-resistant Staphylococcus aureus isolate 13
[4] = test system: Staphylococcus aureus; experiment: Antimicrobial activity against methicillin-susceptible Staphylococcus aureus isolate 3
[5] = test system: Staphylococcus aureus; experiment: Antimicrobial activity against vancomycin-resistant Staphylococcus aureus isolate 12
[6] = test system: Staphylococcus aureus; experiment: Antimicrobial activity against methicillin-susceptible Staphylococcus aureus isolate 1
[7] = test system: Staphylococcus aureus; experiment: Antimicrobial activity against methicillin-susceptible Staphylococcus aureus isolate 4
[8] = test system: Staphylococcus aureus; experiment: Antimicrobial activity against methicillin-resistant Staphylococcus aureus isolate 8
[9] = test system: Staphylococcus aureus; experiment: Antimicrobial activity against methicillin-resistant Staphylococcus aureus isolate 5
[10] = test system: Staphylococcus aureus; experiment: Antimicrobial activity against vancomycin-resistant Staphylococcus aureus isolate 14
[11] = test system: Staphylococcus aureus; experiment: Antimicrobial activity against vancomycin-intermediate Staphylococcus aureus isolate 10
[12] = test system: Staphylococcus aureus; experiment: Antimicrobial activity against vancomycin-intermediate Staphylococcus aureus isolate 9
[13] = test system: Staphylococcus aureus; experiment: Antimicrobial activity against methicillin-resistant Staphylococcus aureus isolate 7
[14] = test system: Staphylococcus aureus; experiment: Antimicrobial activity against methicillin-susceptible Staphylococcus aureus isolate 2
[15] = test system: Staphylococcus aureus; experiment: Antimicrobial activity against vancomycin-resistant Staphylococcus aureus isolate 15

SMILES | MIC [1] [µg/mL] | MIC [2] [µg/mL] | MIC [3] [µg/mL] | MIC [4] [µg/mL] | MIC [5] [µg/mL] | MIC [6] [µg/mL] | MIC [7] [µg/mL] | MIC [8] [µg/mL] | MIC [9] [µg/mL] | MIC [10] [µg/mL] | MIC [11] [µg/mL] | MIC [12] [µg/mL] | MIC [13] [µg/mL] | MIC [14] [µg/mL] | MIC [15] [µg/mL]
CC12C[C@@]34C=CC(=O)[C@@](C)(CCC(=O)Nc5c(O)ccc(C(=O)O)c5O)C3[C@H](CC1C4)O2 (mixture of isomers) [PLATENSIMYCIN] | 2 | 4 | 1 | 128 | 1 | 4 | 2 | 4 | 4 | 0.5 | 4 | 4 | 16 | 64 | 0.5
Cc1onc(-c2ccccc2)c1C(=O)N[C@@H]1C(=O)N2[C@@H]1SC(C)(C)[C@@H]2C(=O)O [OXACILLIN] |  | > 128 |  | 0.125 (≈ 0.311 µM) |  | 0.125 (≈ 0.311 µM) | 0.5 (≈ 1.25 µM) | > 128 | > 128 |  | > 128 | > 128 | 16 (≈ 39.9 µM) | 0.5 (≈ 1.25 µM) | 
CN[C@H](CC(C)C)C(=O)N[C@H]1C(=O)N[C@@H](CC(N)=O)C(=O)N[C@H]2C(=O)N[C@H]3C(=O)N[C@H](C(=O)N[C@H](C(=O)O)c4cc(O)cc(O)c4-c4cc3ccc4O)[C@H](O)c3ccc(c(Cl)c3)Oc3cc2cc(c3O[C@@H]2O[C@H](CO)[C@@H](O)[C@H](O)[C@H]2O[C@H]2C[C@](C)(N)[C@H](O)[C@H](C)O2)Oc2ccc(cc2Cl)[C@H]1O [VANCOMYCIN] |  |  | 128 (≈ 88.3 µM) |  | 32 (≈ 22.1 µM) |  |  |  |  | > 128 |  |  |  |  | > 128
CC12CC3CC4(C=CC(=O)C(C)(CCC(=O)Nc5c(O)ccc(C(=O)O)c5O)C4C3O1)C2 (racemic) [ISOPLATENSIMYCIN] | 16 (≈ 36.2 µM) | > 128 | 32 (≈ 72.5 µM) | > 128 | 64 (≈ 145 µM) | 128 (≈ 290 µM) | 128 (≈ 290 µM) | > 128 | > 128 | 2 (≈ 4.53 µM) | > 128 | > 128 | > 128 | > 128 | 4 (≈ 9.06 µM)
